From patent US8455530B2, “Crystalline form of an alkoxyimidazol-1-ylmethyl biphenyl carboxylic acid” (Theravance, Inc., priority 2008, dated 2013)
“Also recorded” adds a separate entry of the source. Counter-ions that a name gives are not always drawn. Values belong to the compound of their own block, whether it stands above or below them.

How the values were obtained:
[1] = Solid state stability assessment (storage, HPLC purity); format: physicochemical; conditions: for change in chemical purity after 28 days of storage at 40° C.: HPLC
Procedure: Samples of the crystalline freebase prepared as in Example 7, about 100 mg each, were stored in multiple vials at 5° C. (closed container), 25° C. (closed container), and at 40° C. (closed container). At specific intervals, the entire contents of a representative vial was analyzed by the following HPLC method:
Column: Agilent Zorbox SB-C18, 4.6×250 mm, 5 μm (Part No. 880975-902). Mobile Phase A: 80% H2O, 20% MeCN, 0.01% TFA. Mobile Phase B: 80% MeCN, 20% H2O, 0.01% TFA. Flow rate: 1 mL/min. Injection Volume: 20 μL. Detector: 250 nm.
The purity of the samples was determined by HPLC area percentage (% AUC).

human AT1 receptor = target: T1, human AT1 receptor (Homo sapiens, UniProt P30556); assay: AT1 radioligand binding assay ([Eu]AngII displacement); conditions: [Eu]AngII at 2 nM, membranes of CHO-K1 cells expressing human AT1; read-out: pKi at the AT1 receptor (converted)
T1 construct: expressed in transfected cells; membrane preparation
T1 sequence (P30556 1-359): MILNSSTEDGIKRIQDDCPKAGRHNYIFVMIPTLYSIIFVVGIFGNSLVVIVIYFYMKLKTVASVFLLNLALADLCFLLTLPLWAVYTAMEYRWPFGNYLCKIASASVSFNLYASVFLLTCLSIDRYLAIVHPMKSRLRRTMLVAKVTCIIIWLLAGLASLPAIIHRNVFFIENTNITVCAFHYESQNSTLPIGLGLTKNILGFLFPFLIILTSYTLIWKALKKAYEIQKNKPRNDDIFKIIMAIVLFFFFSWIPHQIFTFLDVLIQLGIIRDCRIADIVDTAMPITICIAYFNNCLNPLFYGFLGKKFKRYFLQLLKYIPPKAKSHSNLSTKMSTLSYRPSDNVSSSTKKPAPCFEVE
Procedure: These in vitro assays were used to assess the ability of test compounds to bind to the AT1 and the AT2 receptors.
Membrane Preparation From Cells Expressing Human AT1 or AT2 Receptors
Chinese hamster ovary (CHO-K1) derived cell lines stably expressing the cloned human AT1 or AT2 receptors, respectively, were grown in HAM's-F12 medium supplemented with 10% fetal bovine serum, 10 μg/ml penicillin/streptomycin, and 500 μg/ml geneticin in a 5% CO2 humidified incubator at 37° C. AT2 receptor expressing cells were grown in the additional presence of 100 nM PD123,319 (AT2 antagonist). When cultures reached 80-95% confluence, the cells were washed thoroughly in PBS and lifted with 5 mM EDTA. Cells were pelleted by centrifugation and snap frozen in MeOH-dry ice and stored at −80° C. until further use.
For membrane preparation, cell pellets were resuspended in lysis buffer (25 mM Tris/HCl pH 7.5 at 4° C., 1 mM EDTA, and one tablet of Complete Protease Inhibitor Cocktail Tablets with 2 mM EDTA per 50 mL buffer (Roche cat.#1697498, Roche Molecular Biochemicals, Indianapolis, Ind.)) and homogenized using a tight-fitting Dounce glass homogenizer (10 strokes) on ice. The homogenate was centrifuged at 1000×g, the supernatant was collected and centrifuged at 20,000×g. […] Protein concentration of the membrane suspension was determined by the method described in Bradford (1976) Anal Biochem. 72:248-54. […]

[2] = Thermal stability (heating at 60° C.); format: physicochemical
Procedure: A sample of the crystalline form prepared as in Example 6 was heated at 60° C. for 5 days. The sample lost only 2% of its purity, thus the crystalline compound of the invention has excellent thermal stability.

[3] = Solid state stability assessment (storage, HPLC purity); format: physicochemical; conditions: for purity at time 0: HPLC area percentage
[4] = Dynamic moisture sorption (DMS) assessment; format: physicochemical
Procedure: A dynamic moisture sorption (DMS) assessment (also known as a moisture sorption-desorption profile) was performed for a sample of the crystalline form of Example 2 using a VTI atmospheric microbalance, SGA-100 system (VTI Corp., Hialeah, Fla. 33016). A sample size of approximately 4.27 mg was used and the humidity was set at the ambient value at the start of the analysis. The DMS analysis consisted of a scan rate of 5% RH/step over the full humidity range of 2% relative humidity (RH) to 90% RH. The DMS run was performed isothermally at 25° C.

[5] = Differential scanning calorimetry (thermal stability); format: physicochemical; conditions: 10° C./min from 22° C. to 250° C.; listed as crystalline compound of the invention
Procedure: Differential scanning calorimetry (DSC) was performed using a TA Instruments Model Q-100 module with a Thermal Analyst controller. Data were collected and analyzed using TA Instruments Thermal Solutions software. A 1.64 mg sample of the crystalline form of Example 2 was accurately weighed into a covered aluminum pan. After a 5 minute isothermal equilibration period at 22° C., the sample was heated using a linear heating ramp of 10° C./min from 22° C. to 250° C.

[6] = Micronization with a jet mill, particle size distribution; format: physicochemical
Source text: A sample of the crystalline freebase prepared as in Example 7 was micronized with a jet mill to give a free-flowing white powder. No issues were encountered during the micronization process.

[7] = closed container, listed as amorphous freebase
[8] = closed container, listed as crystalline freebase
[9] = all conditions: 5° C., 25° C. and 40° C., closed container

purity after 14 days at 40° C. [1, 8]: 98.3 % AUC | change in chemical purity after 28 days of storage [1, 9]: no detectable change in chemical purity | weight gain in the humidity range of 40-75% RH ([4]; micronized material): 0.7% | particle size D (v, 0.1) ([6]; Post-Micronization): 0.79 μm | particle size D (v, 0.5) ([6]; Post-Micronization): 2.59 μm | particle size D (v, 0.9) ([6]; Post-Micronization): 7.07 μm | particle size D (v, 0.1) ([6]; Pre-Micronization): 1.73 μm | particle size D (v, 0.5) ([6]; Pre-Micronization): 11.32 μm | particle size D (v, 0.9) ([6]; Pre-Micronization): 50.73 μm | purity after 7 days at 40° C. [3, 8]: 98.4 % AUC | purity after 28 days at 40° C. ([3]; 28 days at 40° C., closed container, listed as crystalline freebase): 98.4 % AUC | purity at time 0 ([3]; listed as crystalline freebase): 98.5 % AUC | change in the appearance of the material after 28 days of storage [3, 9]: no observable change in the appearance
Compound: CCOc1nc(CC)c(CNC(=O)[C@@H](S)CC(C)C)n1Cc1ccc(-c2ccccc2C(=O)O)cc1F [Example 7, 4′-{2-Ethoxy-4-ethyl-5-[((S)-2-mercapto-4-methylpentanoylamino)methyl]imidazol-1-ylmethyl}-3′-fluorobiphenyl-2-carboxylic Acid]
change in chemical purity after 28 days of storage at 40° C. ([1]; 28 days at 40° C., listed as crystalline freebase): no detectable change in chemical purity; also recorded: minimal chemical degradation

loss of purity ([2]; heated at 60° C. for 5 days): 2%
Compound: CCOc1nc(CC)c(CNC(=O)[C@@H](S)CC(C)C)n1Cc1ccc(-c2ccccc2C(=O)O)cc1F [Example 6, 4′-{2-Ethoxy-4-ethyl-5-[((S)-2-mercapto-4-methylpentanoylamino)methyl]imidazol-1-ylmethyl}-3′-fluorobiphenyl-2-carboxylic Acid]

More lines, now with the values behind:

Compound: CCOc1nc(CC)c(CNC(=O)[C@@H](S)CC(C)C)n1Cc1ccc(-c2ccccc2C(=O)O)cc1F [Example 1, 4′-{2-Ethoxy-4-ethyl-5-[((S)-2-mercapto-4-methylpentanoylamino)methyl]imidazol-1-ylmethyl}-3′-fluorobiphenyl-2-carboxylic Acid]
purity after 14 days at 40° C. [1, 7]: 82.4 % AUC | change in chemical purity after 28 days of storage at 40° C. ([1]; 28 days at 40° C., listed as amorphous freebase): decline in purity | Ki (human AT1 receptor): < 100 nM | loss of purity ([2]; heated at 60° C. for 1 day): about 50% | purity after 7 days at 40° C. [3, 7]: 86.8 % AUC | purity at time 0 ([3]; listed as amorphous freebase): 97.5 % AUC

Compound: CCOc1nc(CC)c(CNC(=O)[C@@H](S)CC(C)C)n1Cc1ccc(-c2ccccc2C(=O)O)cc1F [amorphous TFA salt, 4′-{2-ethoxy-4-ethyl-5-[((S)-2-mercapto-4-methylpentanoyl-amino)methyl]imidazol-1-ylmethyl}-3′-fluorobiphenyl-2-carboxylic acid]
purity after 14 days at 40° C. ([1]; closed container): 62.2 % AUC | change in chemical purity after 28 days of storage at 40° C. ([1]; 28 days at 40° C.): decline in purity | purity after 28 days at 40° C. ([1]; 28 days at 40° C., closed container): 47.1 % AUC | purity at time 0 ([1]; HPLC area percentage, time 0): 97.7 % AUC | purity after 7 days at 40° C. ([3]; closed container): 73.5 % AUC

Compound: CCOc1nc(CC)c(CNC(=O)[C@@H](S)CC(C)C)n1Cc1ccc(-c2ccccc2C(=O)O)cc1F [Example 2, 4′-{2-Ethoxy-4-ethyl-5-[((S)-2-mercapto-4-methylpentanoylamino)methyl]imidazol-1-ylmethyl}-3′-fluorobiphenyl-2-carboxylic Acid]
weight gain in the humidity range of 40-75% RH ([4]; unmicronized): less than 1% | weight gain when exposed to up to 75% relative humidity ([4]; up to 75% RH, 25° C.): less than 1% | thermal decomposition (DSC thermograph) [5]: no significant thermal decomposition below about 150 °C
